# Test results as given in patent publication US9708314B2, “Heterocyclic amide compound” (NISSAN CHEMICAL INDUSTRIES, LTD., priority 2013, dated 2017).
# What was measured:
# Assay type in all cases: in vivo
# [1] = tested on: Triticum aestivum; assay: Test Example 4: effect on crop by application to foliage (diluvial soil, plastic box); settings: foliage application, 320 g/ha
# How it was run: (§1)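 Greenhouse plants (25° C. to 30° C., 14 d, diluvial soil) receive a foliar spray of water-diluted emulsifiable formulation at defined g/ha. Grading after 3 weeks uses a six-step herbicidal-ratio scale, with 4 covering 70% to <90% and 1 covering 5% to <20%.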
# [2] = tested on: directly sowed Oryza sativa; assay: as above; settings: foliage application, 320 g/ha
# How it was run: as §1
# [3] = tested on: Glycine max; assay: as above; settings: foliage application, 320 g/ha
# How it was run: as §1
# [4] = tested on: Brassica campestris L.; assay: as above; settings: foliage application, 320 g/ha
# How it was run: as §1
# [5] = tested on: Zea mays; assay: as above; settings: foliage application, 320 g/ha
# How it was run: as §1
# [6] = tested on: Beta vulgaris ssp. vulgaris; assay: as above; settings: foliage application, 320 g/ha
# How it was run: as §1
# [7] = tested on: Echinochloa oryzacola Vasing.; assay: Test Example 1: herbicidal activity, application before weed generation in submerged conditions; settings: Application herbicide amount 320 g/ha; Seventeenth Table
# How it was run: (§2)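 Water-diluted emulsion formulation is applied onto flood water (4 cm deep) covering alluvial soil on the day weed seeds are sown, after transplanting 2.5 leaf stage rice. Rates are expressed per hectare. Injury or control is graded 0–5 three weeks later.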
# [8] = tested on: Scirpus juncoides; assay: as above; settings: Application herbicide amount 320 g/ha; Seventeenth Table
# How it was run: as §2
# [9] = tested on: Monochoria vaginalis; assay: as above; settings: Application herbicide amount 320 g/ha; Seventeenth Table
# How it was run: as §2
# [10] = tested on: transplanted Oryza sativa; assay: Test Example 1: effect on crop, application before weed generation in submerged conditions; settings: Application herbicide amount 320 g/ha; Seventeenth Table
# How it was run: as §2
SMILES,e (Triticum aestivum) effect on crop grade [1],d (directly sowed Oryza sativa) effect on crop grade [2],c (Glycine max) effect on crop grade [3],g (Brassica campestris L.) effect on crop grade [4],b (Zea mays) effect on crop grade [5],f (Beta vulgaris ssp. vulgaris) effect on crop grade [6],A: Echinochloa oryzicola Vasing. (herbicidal effect grade) [7],B: Scirpus juncoides (herbicidal effect grade) [8],C: Monochoria vaginalis (herbicidal effect grade) [9],a: transplanted Oryza sativa (effect on crop grade) [10]
CC(C)Nc1nnc2c(C(=O)Nc3nnnn3C)ccc(C(F)(F)F)n12 [2-066],3 (Herbicidal ratio of 40% or more and less than 70%),4 (Herbicidal ratio of 70% or more and less than 90%),1 (Herbicidal ratio of 5% or more and less than 20%),4 (Herbicidal ratio of 70% or more and less than 90%),4 (Herbicidal ratio of 70% or more and less than 90%),5 (Herbicidal ratio of 90% or more (almost completely withered)),5 (Herbicidal ratio of 90% or more (almost completely withered)),5 (Herbicidal ratio of 90% or more (almost completely withered)),4 (Herbicidal ratio of 70% or more and less than 90%),3 (Herbicidal ratio of 40% or more and less than 70%)
Cn1nnnc1NC(=O)c1ccc(C(F)(F)F)n2c([S+](C)[O-])nnc12 (stereo not drawn) [2-067],4 (Herbicidal ratio of 70% or more and less than 90%),5 (Herbicidal ratio of 90% or more (almost completely withered)),4 (Herbicidal ratio of 70% or more and less than 90%),5 (Herbicidal ratio of 90% or more (almost completely withered)),5 (Herbicidal ratio of 90% or more (almost completely withered)),5 (Herbicidal ratio of 90% or more (almost completely withered)),5 (Herbicidal ratio of 90% or more (almost completely withered)),4 (Herbicidal ratio of 70% or more and less than 90%),4 (Herbicidal ratio of 70% or more and less than 90%),5 (Herbicidal ratio of 90% or more (almost completely withered))
CCCSc1nnc2c(C(=O)Nc3nnnn3C)ccc(C(F)(F)F)n12 [2-068],2 (Herbicidal ratio of 20% or more and less than 40%),4 (Herbicidal ratio of 70% or more and less than 90%),3 (Herbicidal ratio of 40% or more and less than 70%),4 (Herbicidal ratio of 70% or more and less than 90%),5 (Herbicidal ratio of 90% or more (almost completely withered)),5 (Herbicidal ratio of 90% or more (almost completely withered)),5 (Herbicidal ratio of 90% or more (almost completely withered)),5 (Herbicidal ratio of 90% or more (almost completely withered)),4 (Herbicidal ratio of 70% or more and less than 90%),5 (Herbicidal ratio of 90% or more (almost completely withered))
CCC[S+]([O-])c1nnc2c(C(=O)Nc3nnnn3C)ccc(C(F)(F)F)n12 (stereo not drawn) [2-069],3 (Herbicidal ratio of 40% or more and less than 70%),4 (Herbicidal ratio of 70% or more and less than 90%),4 (Herbicidal ratio of 70% or more and less than 90%),5 (Herbicidal ratio of 90% or more (almost completely withered)),5 (Herbicidal ratio of 90% or more (almost completely withered)),5 (Herbicidal ratio of 90% or more (almost completely withered)),5 (Herbicidal ratio of 90% or more (almost completely withered)),5 (Herbicidal ratio of 90% or more (almost completely withered)),5 (Herbicidal ratio of 90% or more (almost completely withered)),5 (Herbicidal ratio of 90% or more (almost completely withered))
CCCS(=O)(=O)c1nnc2c(C(=O)Nc3nnnn3C)ccc(C(F)(F)F)n12 [2-070],4 (Herbicidal ratio of 70% or more and less than 90%),3 (Herbicidal ratio of 40% or more and less than 70%),4 (Herbicidal ratio of 70% or more and less than 90%),5 (Herbicidal ratio of 90% or more (almost completely withered)),3 (Herbicidal ratio of 40% or more and less than 70%),5 (Herbicidal ratio of 90% or more (almost completely withered)),5 (Herbicidal ratio of 90% or more (almost completely withered)),5 (Herbicidal ratio of 90% or more (almost completely withered)),5 (Herbicidal ratio of 90% or more (almost completely withered)),4 (Herbicidal ratio of 70% or more and less than 90%)
CC(C)CSc1nnc2c(C(=O)Nc3nnnn3C)ccc(C(F)(F)F)n12 [2-071],1 (Herbicidal ratio of 5% or more and less than 20%),3 (Herbicidal ratio of 40% or more and less than 70%),2 (Herbicidal ratio of 20% or more and less than 40%),4 (Herbicidal ratio of 70% or more and less than 90%),1 (Herbicidal ratio of 5% or more and less than 20%),5 (Herbicidal ratio of 90% or more (almost completely withered)),5 (Herbicidal ratio of 90% or more (almost completely withered)),5 (Herbicidal ratio of 90% or more (almost completely withered)),5 (Herbicidal ratio of 90% or more (almost completely withered)),4 (Herbicidal ratio of 70% or more and less than 90%)
CCC(C)Sc1nnc2c(C(=O)Nc3nnnn3C)ccc(C(F)(F)F)n12 (stereo not drawn) [2-072],1 (Herbicidal ratio of 5% or more and less than 20%),4 (Herbicidal ratio of 70% or more and less than 90%),3 (Herbicidal ratio of 40% or more and less than 70%),4 (Herbicidal ratio of 70% or more and less than 90%),1 (Herbicidal ratio of 5% or more and less than 20%),5 (Herbicidal ratio of 90% or more (almost completely withered)),5 (Herbicidal ratio of 90% or more (almost completely withered)),5 (Herbicidal ratio of 90% or more (almost completely withered)),5 (Herbicidal ratio of 90% or more (almost completely withered)),3 (Herbicidal ratio of 40% or more and less than 70%)
CC(C)c1nnc2c(C(=O)Nc3nnnn3-c3ccccc3)ccc(C(F)(F)F)n12 [2-073],0 (Herbicidal ratio of 5% or less (almost no effect)),2 (Herbicidal ratio of 20% or more and less than 40%),0 (Herbicidal ratio of 5% or less (almost no effect)),0 (Herbicidal ratio of 5% or less (almost no effect)),0 (Herbicidal ratio of 5% or less (almost no effect)),3 (Herbicidal ratio of 40% or more and less than 70%),4 (Herbicidal ratio of 70% or more and less than 90%),3 (Herbicidal ratio of 40% or more and less than 70%),4 (Herbicidal ratio of 70% or more and less than 90%),2 (Herbicidal ratio of 20% or more and less than 40%)
COCCNc1nnc2c(C(=O)Nc3nnnn3C)ccc(C(F)(F)F)n12 [2-074],3 (Herbicidal ratio of 40% or more and less than 70%),4 (Herbicidal ratio of 70% or more and less than 90%),3 (Herbicidal ratio of 40% or more and less than 70%),4 (Herbicidal ratio of 70% or more and less than 90%),5 (Herbicidal ratio of 90% or more (almost completely withered)),5 (Herbicidal ratio of 90% or more (almost completely withered)),4 (Herbicidal ratio of 70% or more and less than 90%),4 (Herbicidal ratio of 70% or more and less than 90%),3 (Herbicidal ratio of 40% or more and less than 70%),3 (Herbicidal ratio of 40% or more and less than 70%)
